Experimental data reported in patent publication US20020025337A1, “LIPID VEHICLE DRUG DELIVERY COMPOSITION CONTAINING VITAMIN E” (priority 1995, published 2002).
Converted amounts (≈) assume the structure as drawn.

Assay: physchem
Conditions: for solubility / solubility at 18 h: 25 °C
Procedure: To measure the SVE of a drug, saturated solutions of the drug are prepared in methanol and chloroform. An appropriate means of preparing a saturated solution is to suspend approximately 60 mg of drug in 3 ml of the solvent and stir for 24 hours at room temperature. If all of the drug dissolves during this time, further 10 mg aliquots should be added until a suspension is again formed. After 24 hours, the suspension are centrifuged or filtered to separate drug in solution from undissolved particulate drug. The drug solutions are assayed for drug content by an appropriate means, eg. high performance liquid chromatography, and the saturated solubility calculated. The SVE is calculated by dividing the solubility in chloroform by the solubility in methanol and expressed as weight in volume (w/v).
Into each of two 10 ml bottles was weighed 60 mg of itraconazole. To one bottle was added 3 ml of chloroform. […] Further itraconazole was added in 100 mg aliquots until a suspension was formed. […] To the other bottle was added 3 ml of methanol. A magnetic stirrer bar was added to each bottle and the contents were left to stir on a magnetic stirrer. After being left overnight to stir (18 hours), the contents of each bottle were filtered through a 0.1 μm PTFE filter (Whatman). […] To assay the methanol filtrate for itraconazole content, 1 ml was diluted to 5 ml with the same diluent used for the chloroform analysis. Both samples were assayed for itraconazole content using reverse-phase high performance liquid chromatography.

[1] = oil or lipid, Solubility (mg/ml) Vitamin E
[2] = organic solvent or mixture, thermodynamic from solid, Solubility (mg/ml) Chloroform
[3] = organic solvent or mixture, thermodynamic from solid, Solubility (mg/ml) Methanol

| Solubility (mg/ml) Water | solubility [1] [mg/mL] | solubility [2] [mg/mL] | solubility [3] [mg/mL] | Structure (SMILES) | other results |
| --- | --- | --- | --- | --- | --- |
| insol. | – | – | – | C[C@@H]1[C@H](O)[C@@H](C)/C=C/C=C/C=C/C=C/C=C/C=C/C=C/[C@H](O[C@@H]2O[C@H](C)[C@@H](O)[C@H](N)[C@@H]2O)C[C@@H]2O[C@](O)(C[C@@H](O)C[C@@H](O)[C@H](O)CC[C@@H](O)C[C@@H](O)CC(=O)O[C@H]1C)C[C@H](O)[C@H]2C(=O)O [Amphotericin] | Solubility (mg/ml) Chloroform: insol.; Solubility (mg/ml) Vitamin E: insol. |
| insol. | 150 (≈ 388 mM) | 200 (≈ 517 mM) | 5 (≈ 12.9 mM) | CC(C)CCC[C@@H](C)[C@H]1CC[C@H]2[C@@H]3CC=C4C[C@@H](O)CC[C@]4(C)[C@H]3CC[C@]12C [Cholesterol] | – |
| insol. | 50 (≈ 126 mM) | 32 (≈ 80.7 mM) | 1.5 (≈ 3.78 mM) | CC(C)[C@@H](C)/C=C/[C@@H](C)[C@H]1CC[C@H]2C3=CC=C4C[C@@H](O)CC[C@]4(C)[C@H]3CC[C@]12C [Ergosterol] | – |
| insol | 60 (≈ 85 mM) | 500 (≈ 709 mM) | – | CCC(C)n1ncn(-c2ccc(N3CCN(c4ccc(OCC5COC(Cn6cncn6)(c6ccc(Cl)cc6Cl)O5)cc4)CC3)cc2)c1=O (centres unmarked) [Itraconazole] | solubility (oil or lipid, solubility of the drug in vegetable oils): ≤ 0.4 mg/mL; solubility at 18 h (organic solvent or mixture, thermodynamic from solid, solubility of itraconazole in chloroform): 350 mg/mL (≈ 496 mM); solubility at 18 h (organic solvent or mixture, thermodynamic from solid, solubility of itraconazole in methanol): 0.7 mg/mL (≈ 0.992 mM); SVE value (18 h): 500 |
| – | – | – | – | C[C@]12C=CC(=O)C=C1CC[C@@H]1[C@@H]2[C@@H](O)C[C@@]2(C)[C@H]1CC[C@]2(O)C(=O)CO [Prednisolone] | solubility (organic solvent or mixture, thermodynamic from solid, Solubility (mg/ml) Methanol, methanol, room temperature (25° C.)): 33 mg/mL (≈ 91.6 mM) |
| insol | – | – | – | CC(=O)O[C@H]1C(=O)[C@@]2(C)[C@H]([C@H](OC(=O)c3ccccc3)[C@]3(O)C[C@H](OC(=O)[C@H](O)[C@@H](NC(=O)c4ccccc4)c4ccccc4)C(C)=C1C3(C)C)[C@]1(OC(C)=O)CO[C@@H]1C[C@@H]2O [Taxol] | – |
